Test system: C57BL/6 male mice
Test: In vivo delivery study of lipid nucleic acid mixture (oral gavage, RT-qPCR of PGY-sRNA-26 in tissues)
Set-up: species or system mouse
Details: 100 μg lipid:10 nmol PGY-sRNA-26, sampled after 12 hours; for oral delivery of single-stranded sRNA nucleic acids into mouse heart tissue: vs free uptake group; for oral delivery of single-stranded sRNA nucleic acids into mouse intestinal tissue: intestine; for oral delivery of single-stranded sRNA nucleic acids into mouse pancreatic tissue: pancreas
How it was run: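 Lipid (100 μg) and 10 nmol 3'-methylated single-stranded PGY-sRNA-26 were heated at 90 °C for 15 min, then given by oral gavage to mice fasted 12 h. Controls were saline and free sRNA. Blood and tissues were taken at 12 h, and levels were measured by stem-loop RT-qPCR relative to U6.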

CCCCCC/C=C\CCCCCCCC(=O)OCCCCCCCCCCCCCCCCCCCCCC [Lipid 823, docosyl (Z)-hexadec-9-enoate]
can effectively orally deliver: oral delivery of single-stranded sRNA nucleic acids into mouse blood | oral delivery of single-stranded sRNA nucleic acids into mouse brain tissue | oral delivery of single-stranded sRNA nucleic acids into mouse femur | oral delivery of single-stranded sRNA nucleic acids into mouse heart tissue | oral delivery of single-stranded sRNA nucleic acids into mouse intestinal tissue | oral delivery of single-stranded sRNA nucleic acids into mouse kidney tissue | oral delivery of single-stranded sRNA nucleic acids into mouse liver tissue | oral delivery of single-stranded sRNA nucleic acids into mouse lung tissue | oral delivery of single-stranded sRNA nucleic acids into mouse pancreatic tissue | oral delivery of single-stranded sRNA nucleic acids into mouse spleen tissue | oral delivery of single-stranded sRNA nucleic acids into mouse stomach tissue

CC/C=C\C/C=C\C/C=C\CCCCCCCC(=O)OCCCCCCCCCCCCCC [Lipid 824, tetradecyl (9Z,12Z,15Z)-octadeca-9,12,15-trienoate]
can effectively orally deliver: oral delivery of single-stranded sRNA nucleic acids into mouse blood | oral delivery of single-stranded sRNA nucleic acids into mouse brain tissue | oral delivery of single-stranded sRNA nucleic acids into mouse femur | oral delivery of single-stranded sRNA nucleic acids into mouse heart tissue | oral delivery of single-stranded sRNA nucleic acids into mouse intestinal tissue | oral delivery of single-stranded sRNA nucleic acids into mouse kidney tissue | oral delivery of single-stranded sRNA nucleic acids into mouse liver tissue | oral delivery of single-stranded sRNA nucleic acids into mouse lung tissue | oral delivery of single-stranded sRNA nucleic acids into mouse pancreatic tissue | oral delivery of single-stranded sRNA nucleic acids into mouse spleen tissue | oral delivery of single-stranded sRNA nucleic acids into mouse stomach tissue

CCCCCC/C=C\CCCCCCCC(=O)OCCCCCCCCCCCCCCCCCCCCCCC [Lipid 825, tricosyl (Z)-hexadec-9-enoate]
can effectively orally deliver: oral delivery of single-stranded sRNA nucleic acids into mouse blood | oral delivery of single-stranded sRNA nucleic acids into mouse brain tissue | oral delivery of single-stranded sRNA nucleic acids into mouse femur | oral delivery of single-stranded sRNA nucleic acids into mouse heart tissue | oral delivery of single-stranded sRNA nucleic acids into mouse intestinal tissue | oral delivery of single-stranded sRNA nucleic acids into mouse kidney tissue | oral delivery of single-stranded sRNA nucleic acids into mouse liver tissue | oral delivery of single-stranded sRNA nucleic acids into mouse lung tissue | oral delivery of single-stranded sRNA nucleic acids into mouse pancreatic tissue | oral delivery of single-stranded sRNA nucleic acids into mouse spleen tissue | oral delivery of single-stranded sRNA nucleic acids into mouse stomach tissue

CCCCC/C=C\C/C=C\C/C=C\C/C=C\CCCC(=O)Nc1ccc(S(N)(=O)=O)cc1 [Lipid 826, (5Z,8Z,11Z,14Z)-N-(4-sulfamoylphenyl)icosa-5,8,11,14-tetraenamide]
can effectively orally deliver: oral delivery of single-stranded sRNA nucleic acids into mouse blood | oral delivery of single-stranded sRNA nucleic acids into mouse brain tissue | oral delivery of single-stranded sRNA nucleic acids into mouse femur | oral delivery of single-stranded sRNA nucleic acids into mouse heart tissue | oral delivery of single-stranded sRNA nucleic acids into mouse intestinal tissue | oral delivery of single-stranded sRNA nucleic acids into mouse kidney tissue | oral delivery of single-stranded sRNA nucleic acids into mouse liver tissue | oral delivery of single-stranded sRNA nucleic acids into mouse lung tissue | oral delivery of single-stranded sRNA nucleic acids into mouse pancreatic tissue | oral delivery of single-stranded sRNA nucleic acids into mouse spleen tissue | oral delivery of single-stranded sRNA nucleic acids into mouse stomach tissue

CCCCCC/C=C\CCCCCCCC(=O)OC(CC)C(C)CCC (stereo not shown) [Lipid 827, 4-methylheptan-3-yl (Z)-hexadec-9-enoate]
can effectively orally deliver: oral delivery of single-stranded sRNA nucleic acids into mouse blood | oral delivery of single-stranded sRNA nucleic acids into mouse brain tissue | oral delivery of single-stranded sRNA nucleic acids into mouse femur | oral delivery of single-stranded sRNA nucleic acids into mouse heart tissue | oral delivery of single-stranded sRNA nucleic acids into mouse intestinal tissue | oral delivery of single-stranded sRNA nucleic acids into mouse kidney tissue | oral delivery of single-stranded sRNA nucleic acids into mouse liver tissue | oral delivery of single-stranded sRNA nucleic acids into mouse lung tissue | oral delivery of single-stranded sRNA nucleic acids into mouse pancreatic tissue | oral delivery of single-stranded sRNA nucleic acids into mouse spleen tissue | oral delivery of single-stranded sRNA nucleic acids into mouse stomach tissue

CCCCC/C=C\C/C=C\CCCCCCCC(=O)OC(CC)C(C)CCC (stereo not shown) [Lipid 828, 4-methylheptan-3-yl (9Z,12Z)-octadeca-9,12-dienoate]
can effectively orally deliver: oral delivery of single-stranded sRNA nucleic acids into mouse blood | oral delivery of single-stranded sRNA nucleic acids into mouse brain tissue | oral delivery of single-stranded sRNA nucleic acids into mouse femur | oral delivery of single-stranded sRNA nucleic acids into mouse heart tissue | oral delivery of single-stranded sRNA nucleic acids into mouse intestinal tissue | oral delivery of single-stranded sRNA nucleic acids into mouse kidney tissue | oral delivery of single-stranded sRNA nucleic acids into mouse liver tissue | oral delivery of single-stranded sRNA nucleic acids into mouse lung tissue | oral delivery of single-stranded sRNA nucleic acids into mouse pancreatic tissue | oral delivery of single-stranded sRNA nucleic acids into mouse spleen tissue | oral delivery of single-stranded sRNA nucleic acids into mouse stomach tissue

CCCCCCCCCCCCCC(=O)OCCCCCCCCCCCCCCC(C)C [Lipid 829, 15-methylhexadecyl tetradecanoate]
can effectively orally deliver: oral delivery of single-stranded sRNA nucleic acids into mouse blood | oral delivery of single-stranded sRNA nucleic acids into mouse brain tissue | oral delivery of single-stranded sRNA nucleic acids into mouse femur | oral delivery of single-stranded sRNA nucleic acids into mouse heart tissue | oral delivery of single-stranded sRNA nucleic acids into mouse intestinal tissue | oral delivery of single-stranded sRNA nucleic acids into mouse kidney tissue | oral delivery of single-stranded sRNA nucleic acids into mouse liver tissue | oral delivery of single-stranded sRNA nucleic acids into mouse lung tissue | oral delivery of single-stranded sRNA nucleic acids into mouse pancreatic tissue | oral delivery of single-stranded sRNA nucleic acids into mouse spleen tissue | oral delivery of single-stranded sRNA nucleic acids into mouse stomach tissue

CCCCCCCCCCCCCCCCCC(=O)N[C@@H](Cc1ccccc1)C(=O)O [Lipid 830, (2S)-2-(octadecanoylamino)-3-phenylpropanoic acid]
can effectively orally deliver: oral delivery of single-stranded sRNA nucleic acids into mouse blood | oral delivery of single-stranded sRNA nucleic acids into mouse brain tissue | oral delivery of single-stranded sRNA nucleic acids into mouse femur | oral delivery of single-stranded sRNA nucleic acids into mouse heart tissue | oral delivery of single-stranded sRNA nucleic acids into mouse intestinal tissue | oral delivery of single-stranded sRNA nucleic acids into mouse kidney tissue | oral delivery of single-stranded sRNA nucleic acids into mouse liver tissue | oral delivery of single-stranded sRNA nucleic acids into mouse lung tissue | oral delivery of single-stranded sRNA nucleic acids into mouse pancreatic tissue | oral delivery of single-stranded sRNA nucleic acids into mouse spleen tissue | oral delivery of single-stranded sRNA nucleic acids into mouse stomach tissue
